Reference: PubChem BioAssay AID1963837 (Molecular Pharmacology Branch, DTP, NCI, 2024)

System: 843126-344-R-J1-PDC complex spheroid viability
Assay: Anticancer human tumor 843126-344-R-J1-PDC patient-derived melanoma cell line growth inhibition [POLQ]
Conditions: for IC50: curve of first compound; for viability, T/C: stronger effect = lower value; active = viability on the fitted dose curve at most 10% of control; inactive = the rest
Method: Multicellular complex tumor spheroid response to Polymerase (POL) inhibitors (novobiocin, ART-558, RP6685) in combination with a variety of drugs and investigational agents in selected tumor cell lines
The POL inhibitors (novobiocin, ART-558, and RP6685) were evaluated both individually and in combination with standard of care and investigational anticancer small molecules within a complex spheroid model of solid tumors. . Complex spheroids include a stromal component modeled by human endothelial cells (HUVEC) and fibroblasts modeled by human mesenchymal stem cells (MSCs). The concentration ranges selected for each drug and investigational agent were based upon clinically achievable concentrations if the clinical Cmax of the agent was known.
Compounds. The drugs and investigational agents: novobiocin (NSC847541), ART-558 (NSC835418), RP-6685 (NSC848927), peposertib (NSC802822), ceralasertib (NSC780249), elimusertib (NSC800525), camonsertib (NSC841442), AZD-1390 (NSC803789), olaparib (NSC753686), talazoparib (NSC767125), rucaparib (NSC756644), sotorasib (NSC818433), MRTX-1133 (NSC836407), SN-38 (NSC673596), topotecan (NSC609699), epotoside (NSC141540), doxorubicin (NSC123127), gemcitabine (NSC613327), 5-fluorouracil (NSC19893), paclitaxel (NSC125973), vemurafenib (NSC761431), MSA-2 (NSC828583), SN-011 (NSC837082), adavosertib (NSC754352), prexasertib (NSC758257), carboplatin (NSC241240) and oxaliplatin (NSC266046), were obtained from the National Cancer Institute (NCI) Developmental Therapeutics Program Chemical Repository (21). The FDA-approved anticancer drug set is available from the Developmental Therapeutics Program at https://dtp.cancer.gov/organization/dscb/obtaining/. […] The stock solutions were prepared in dimethyl sulfoxide (DMSO, Sigma-Aldrich, St. Louis, MO, cat. D2650), except for the platinum compounds which were prepared in saline (Quality Biological, Gaithersburg, MD, cat. 114-055-101), at 800-fold the tested concentration and stored at -70 degrees C prior to their use. All drugs and investigational agents were tested over a range starting from a high concentration at or near the clinical Cmax and decreasing in half-log increments. If the clinical Cmax for an agent had not been determined, the highest concentration tested was 10 microM, except for SN-38, which was tested at a high concentration of 1 microM.
Cell Culture. All cells were maintained in an incubator at 37 degrees C and 5% CO2 with 95% humidity. The PDC lines were cultured according to standard operating procedures established by the NCI PDMR (https://pdmr.cancer.gov). Table 3 of the manuscript, lists the cell lines along with the number of the three cell types plated to form the mct-spheroids and media for tumor cell growth. After thawing, all PDC lines, except 997537-175-T-J1-PDC and 415267-285-R-J2-PDC, were cultured in Matrigel-coated flasks prepared with a working solution of 1X Ham's F-12 nutrient mix, without supplementation (Thermo Fisher Scientific, cat. 11765054), 100 U/mL penicillin-streptomycin (Thermo Fisher Scientific, cat. 15140122), and 2.5% Matrigel (Corning Inc., Corning, NY, cat. 354248) for the first three passages. The two PDC lines 997537-175-T-J1-PDC and 415267-285-R-J2-PDC were cultured on uncoated flasks. The 857933-349-R-J2-PDC line was cultured in 6C/Colon 1B media containing advanced DMEM/F-12 (Thermo Fisher Scientific, cat. 12634028), 10 mM HEPES (Thermo Fisher Scientific, cat. 15630080), 1X GlutaMAX supplement (Thermo Fisher Scientific, cat. 35050061), 0.1 mg/mL primocin (InvivoGen, San Diego, CA, cat. ant-pm-2), 10% defined fetal bovine serum, heat inactivated (HyClone Laboratories Inc., Logan, UT, cat. SH30070.03HI), 50% L-WRN conditioned media (ATCC, cat. CRL-3276), 1.25 mM N-Acetyl-L-cysteine (Sigma-Aldrich, cat. A9165), 10 mM nicotinamide (Sigma-Aldrich, cat. N0636), 1X B-27 supplement (Thermo Fisher Scientific, cat. 17504044), 1X N-2 supplement (Thermo Fisher Scientific, cat. […]
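For viability, T/C in this document: spheroids exposed to drugs for seven days before readout.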

CC[C@@]1(O)C(=O)OCc2c1cc1n(c2=O)Cc2cc3c(CN(C)C)c(O)ccc3nc2-1 + Nc1ccc(C#CCN(C(=O)Cc2ncc(C(F)(F)F)cc2C(F)(F)F)c2ccc(F)cc2)nn1
> 100 nM: IC50 (second compound 0.0316 µM) | IC50 (second compound 0.1 µM) | IC50 (second compound 0.316 µM) | IC50 (second compound 1 µM) | IC50 (second compound 3.16 µM) | IC50 (second compound 10 µM)
inactive: viability, T/C (second compound 0.0316 µM, first compound 0.000316 µM) 85% | viability, T/C (second compound 0.0316 µM, first compound 0.001 µM) 94% | viability, T/C (second compound 0.0316 µM, first compound 0.00316 µM) 82.8% | viability, T/C (second compound 0.0316 µM, first compound 0.01 µM) 100% | viability, T/C (second compound 0.0316 µM, first compound 0.0316 µM) 71.1% | viability, T/C (second compound 0.0316 µM, first compound 0.1 µM) 50.2% | viability, T/C (second compound 0.1 µM, first compound 0.000316 µM) 103% | viability, T/C (second compound 0.1 µM, first compound 0.001 µM) 85.8% | viability, T/C (second compound 0.1 µM, first compound 0.00316 µM) 91% | viability, T/C (second compound 0.1 µM, first compound 0.01 µM) 87.7% | viability, T/C (second compound 0.1 µM, first compound 0.0316 µM) 67.2% | viability, T/C (second compound 0.1 µM, first compound 0.1 µM) 55.8% | viability, T/C (second compound 0.316 µM, first compound 0.000316 µM) 96.4% | viability, T/C (second compound 0.316 µM, first compound 0.001 µM) 81.4% | viability, T/C (second compound 0.316 µM, first compound 0.00316 µM) 90.5% | viability, T/C (second compound 0.316 µM, first compound 0.01 µM) 91.7% | viability, T/C (second compound 0.316 µM, first compound 0.0316 µM) 72% | viability, T/C (second compound 0.316 µM, first compound 0.1 µM) 61.1% | viability, T/C (second compound 1 µM, first compound 0.000316 µM) 85.1% | viability, T/C (second compound 1 µM, first compound 0.001 µM) 93.3% | viability, T/C (second compound 1 µM, first compound 0.00316 µM) 102% | viability, T/C (second compound 1 µM, first compound 0.01 µM) 93.9% | viability, T/C (second compound 1 µM, first compound 0.0316 µM) 63.8% | viability, T/C (second compound 1 µM, first compound 0.1 µM) 49.2% | viability, T/C (second compound 3.16 µM, first compound 0.000316 µM) 93.6% | viability, T/C (second compound 3.16 µM, first compound 0.001 µM) 98.2% | viability, T/C (second compound 3.16 µM, first compound 0.00316 µM) 95.3% | viability, T/C (second compound 3.16 µM, first compound 0.01 µM) 106% | viability, T/C (second compound 3.16 µM, first compound 0.0316 µM) 64.9% | viability, T/C (second compound 3.16 µM, first compound 0.1 µM) 54.7% | viability, T/C (second compound 10 µM, first compound 0.000316 µM) 85.9% | viability, T/C (second compound 10 µM, first compound 0.001 µM) 87.3% | viability, T/C (second compound 10 µM, first compound 0.00316 µM) 87.8% | viability, T/C (second compound 10 µM, first compound 0.01 µM) 92.9% | viability, T/C (second compound 10 µM, first compound 0.0316 µM) 69.2% | viability, T/C (second compound 10 µM, first compound 0.1 µM) 50%
